Values belong to the compound of their own block, whether it stands above or below them. Starred links: 1 amine or outer side, 2 acyl side, 3 side chain; linkers in the order of their positions; H or OH if unused. Non-standard residues stand in square brackets, D forms with d. Residues, ends and D or L forms follow the SMILES beside them. *: point of attachment. NH(1S,2S-2-CONH2-cPent) = NC(=O)[C@H]1CCC[C@@H]1N*; X12 = O=C([C@H]1CCC[C@@H]1N[*:1])[*:2]; X13 = O=C([C@H]1CNC[C@@H]1N[*:1])[*:2]; ACPC(1S,2S) = N[C@H]1CCC[C@@H]1C(=O)*; β3hE = N[C@@H](CCC(=O)O)CC(=O)O; β3hD = NC(CC(=O)O)CC(=O)O
What was measured:
R^0 form of human PTHR-1 = biological target: T1, R^0 form of human PTHR-1 (Homo sapiens, UniProt Q03431); assay: Radio-ligand competition binding to R^0 form of human PTHR-1 (COS-7 membranes, 125I-PTH(1-34) tracer, GTPγS)
T1 construct: expressed in transfected cells; host or cells: COS-7
T1 sequence (Q03431 27-593): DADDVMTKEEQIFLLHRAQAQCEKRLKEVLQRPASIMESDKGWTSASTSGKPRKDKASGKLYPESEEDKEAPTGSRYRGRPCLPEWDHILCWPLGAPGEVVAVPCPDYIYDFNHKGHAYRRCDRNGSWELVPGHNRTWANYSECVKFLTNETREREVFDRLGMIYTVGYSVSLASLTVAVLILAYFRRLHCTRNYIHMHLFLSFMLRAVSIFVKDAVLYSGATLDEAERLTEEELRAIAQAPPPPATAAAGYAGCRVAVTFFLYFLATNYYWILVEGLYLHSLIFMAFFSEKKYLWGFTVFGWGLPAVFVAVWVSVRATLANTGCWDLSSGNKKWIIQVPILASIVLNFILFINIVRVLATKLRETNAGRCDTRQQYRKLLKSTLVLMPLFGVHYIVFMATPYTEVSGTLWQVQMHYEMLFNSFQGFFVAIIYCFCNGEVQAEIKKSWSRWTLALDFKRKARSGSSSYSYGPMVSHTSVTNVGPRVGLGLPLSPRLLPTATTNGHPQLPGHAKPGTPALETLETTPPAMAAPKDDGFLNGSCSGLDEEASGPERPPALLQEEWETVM
Text: Data are means (±SEM) of n≥4 experiments, each performed in duplicate.

WT human PTHR-1 = biological target: T2, WT human PTHR-1 (Homo sapiens, UniProt Q03431); assay: cAMP GloSensor dose-response in GP-2.3 cells expressing human PTHR-1; assay type: cell-based; settings: for cAMP (hPTHR-1) Max: luminescence counts per second relative to PTH(1-34); for cAMP (hPTHR-1) Max / Max: 12-16 minutes after ligand addition; for Max: Table 6, mean ± SEM; for agonist activity at hPTHR-1 (cAMP response), in words: maximum cAMP response compared with PTH(1-34)
T2 construct: bioactivity of the resulting compound in full-length hPTHR-1 and a truncated version; expressed in transfected cells
T2 sequence (Q03431 27-593): T1 sequence (Q03431 27-593)
Experimental: FIGS. 8A, 8B, and 8C constitute a series of graphs depicting cAMP responses in GP-2.3 cells expressing wild-type human parathyroid hormone receptor 1 (PTHR-1-WT). […] Data are means (±SEM) of n>4 experiments, each performed in duplicate.
(§1) For cAMP dose-response assays, monolayers of confluent HEK 293 cells were pre-incubated with buffer containing d-luciferin (0.5 mM) in 96 well plates at room temperature until a stable baseline level of luminescence was established (30 min). Varying concentrations of agonist were then added, and the time course of luminescence response was recorded using a Perkin Elmer plate reader following α/β-peptide addition.

WT rat PTHR-1 = biological target: T3, WT rat PTHR-1 (Rattus norvegicus, UniProt P25961); assay: cAMP GloSensor dose-response in GR-35 cells expressing rat PTHR-1; assay type: cell-based; settings: Table 7; GR-35 cells, 12-16 minutes after ligand addition; mean ± SEM
T3 construct: expressed in transfected cells
T3 sequence (P25961 27-591): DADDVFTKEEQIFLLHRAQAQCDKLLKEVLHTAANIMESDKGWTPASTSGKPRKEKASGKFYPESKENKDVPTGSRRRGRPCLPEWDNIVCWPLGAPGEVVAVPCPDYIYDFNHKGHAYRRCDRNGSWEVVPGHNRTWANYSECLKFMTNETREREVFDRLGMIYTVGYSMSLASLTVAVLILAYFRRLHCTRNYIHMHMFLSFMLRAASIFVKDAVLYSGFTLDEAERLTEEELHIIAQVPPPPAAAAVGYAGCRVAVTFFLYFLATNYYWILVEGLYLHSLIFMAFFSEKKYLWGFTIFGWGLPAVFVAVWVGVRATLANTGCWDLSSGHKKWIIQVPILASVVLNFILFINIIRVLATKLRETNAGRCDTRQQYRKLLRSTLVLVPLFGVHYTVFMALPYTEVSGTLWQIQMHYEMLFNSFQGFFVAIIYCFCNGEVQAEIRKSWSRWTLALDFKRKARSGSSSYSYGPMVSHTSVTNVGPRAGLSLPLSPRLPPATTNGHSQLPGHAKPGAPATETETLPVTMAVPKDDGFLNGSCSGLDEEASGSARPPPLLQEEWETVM
Experimental: FIGS. 9A, 9B, and 9C constitute a series of graphs depicting cAMP responses in GR-35 cells expressing rat PTHR-1-WT. […] Data are means (±SEM) of n>4 experiments, each performed in duplicate.
as §1

PTHR = biological target: T4, PTHR (Homo sapiens, UniProt Q03431); assay: cAMP induction potency, N-terminal modifications and cyclic constraints (Tables 9, 10, 13); assay type: cell-based
T4 construct: expressed in transfected cells
T4 sequence (Q03431 27-593): T1 sequence (Q03431 27-593)

Compound: CC[C@H](C)[C@H](NC(=O)[C@H](CCC(=O)O)NC(=O)[C@H](CO)NC(=O)[C@@H](NC(=O)[C@H]1CCC[C@@H]1N)C(C)C)C(=O)N[C@@H](CCC(N)=O)C(=O)N[C@H]1CCC[C@@H]1C(=O)N[C@@H](CCSC)C(=O)N[C@@H](Cc1c[nH]cn1)C(=O)N[C@@H](CC(N)=O)C(=O)N[C@@H](CC(C)C)C(=O)NCC(=O)N[C@@H](CCCCN)C(=O)N[C@H]1CCC[C@@H]1C(=O)N[C@@H](CC(C)C)C(=O)N[C@@H](CC(N)=O)C(=O)N[C@@H](CO)C(=O)N[C@H]1CCC[C@@H]1C(=O)N[C@@H](CCC(=O)O)C(=O)N[C@@H](CCCNC(=N)N)C(=O)N[C@H](C(=O)N[C@@H](CCC(=O)O)CC(=O)N[C@@H](Cc1c[nH]c2ccccc12)C(=O)N[C@@H](CC(C)C)C(=O)N[C@@H](CCCNC(=N)N)C(=O)N[C@H]1CNC[C@@H]1C(=O)N[C@@H](CCCCN)C(=O)N[C@@H](CC(C)C)C(=O)N[C@@H](CCC(N)=O)C(=O)N[C@@H](CC(=O)O)CC(=O)N[C@H](C(=O)N[C@@H](Cc1c[nH]cn1)C(=O)N[C@@H](CC(N)=O)C(=O)N[C@H]1CCC[C@@H]1C(N)=O)C(C)C)C(C)C [CycD6_ACPC(1,7), XVSEIQXMHNLGKXLNSXERVEWLRZKLQDVHNX-NH2] ({ACPC(1S,2S)}-VSEIQ[X12]MHNLGK[X12]LNS[X12]ERV[β3hE]WLR[X13]KLQ[β3hD]VHN-{NH(1S,2S-2-CONH2-cPent)}; N-terminus assumed)
Fold PTH (PTHR; Table 9): 7.3

Compound: XVSEXQXMHNLGKWLNSMERVEWLRKKLQDVHNF-NH2 [D6_ACPC(1,5,7)]
Fold PTH (PTHR; Table 9): 2,045

Compound: AVAEIQXMHQ^hRAKXLNSXRRVEWLRZKLQDVHNX-NH2 [M-cycD6]
Fold PTH (PTHR; Table 10): 4.0

Compound: CC[C@H](C)[C@H](NC(=O)[C@H](CCC(=O)O)NC(=O)[C@H](CO)NC(=O)[C@@H](NC(=O)[C@@H](N)CO)C(C)C)C(=O)N[C@@H](CCC(N)=O)C(=O)N[C@@H](CC(C)C)C(=O)N[C@@H](CCSC)C(=O)N[C@@H](Cc1c[nH]cn1)C(=O)N[C@@H](CC(N)=O)C(=O)N[C@@H](CC(C)C)C(=O)NCC(=O)N[C@@H](CCCCN)C(=O)N[C@H]1CCC[C@@H]1C(=O)N[C@@H](CC(C)C)C(=O)N[C@@H](CC(N)=O)C(=O)N[C@@H](CO)C(=O)N[C@H]1CCC[C@@H]1C(=O)N[C@@H](CCC(=O)O)C(=O)N[C@@H](CCCNC(=N)N)C(=O)N[C@H](C(=O)N[C@@H](CCC(=O)O)CC(=O)N[C@@H](Cc1c[nH]c2ccccc12)C(=O)N[C@@H](CC(C)C)C(=O)N[C@@H](CCCNC(=N)N)C(=O)N[C@H]1CNC[C@@H]1C(=O)N[C@@H](CCCCN)C(=O)N[C@@H](CC(C)C)C(=O)N[C@@H](CCC(N)=O)C(=O)N[C@@H](CC(=O)O)CC(=O)N[C@H](C(=O)N[C@@H](Cc1c[nH]cn1)C(=O)N[C@@H](CC(N)=O)C(=O)N[C@H]1CCC[C@@H]1C(N)=O)C(C)C)C(C)C [cycD6, SVSEIQLMHNLGKXLNSXERVEWLRZKLQDVHNX-NH2] (H-SVSEIQLMHNLGK[X12]LNS[X12]ERV[β3hE]WLR[X13]KLQ[β3hD]VHN-{NH(1S,2S-2-CONH2-cPent)}; N-terminus assumed)
Fold PTH (PTHR; Table 9): 1.3
EC50 (PTHR; Table 9, read-out: EC50, nM (cAMP induction potency)): 0.1 ± 0.01 nM

Compound: AVAEIQXMHQ^hRAKXLNSXRRVZWLRZKLQXVHNX-NH2 [M-FcycD6]
Fold PTH (PTHR; Table 10): 6.3

The next lines start with results.

IC50 (R^0 form of human PTHR-1; Table 1, COS-7 membranes, 125I-PTH(1-34) tracer, GTPγS, read-out: R^0 IC50, nM, Binding (hPTHR-1)): 80 nM
EC50 (WT human PTHR-1; Table 1, GP-2.3 cells, read-out: cAMP (hPTHR-1) EC50): 0.11 nM
cAMP (hPTHR-1) Max (WT human PTHR-1; Table 1): 1.08
agonist activity at hPTHR-1 (cAMP response), in words (WT human PTHR-1): full agonists of hPTHR-1
Compound: CC[C@H](C)[C@H](NC(=O)[C@H](CCC(=O)O)NC(=O)[C@H](CO)NC(=O)[C@@H](NC(=O)[C@@H](N)CO)C(C)C)C(=O)N[C@@H](CCC(N)=O)C(=O)N[C@@H](CC(C)C)C(=O)N[C@@H](CCSC)C(=O)N[C@@H](Cc1c[nH]cn1)C(=O)N[C@@H](CC(N)=O)C(=O)N[C@@H](CC(C)C)C(=O)NCC(=O)N[C@@H](CCCCN)C(=O)N[C@@H](Cc1c[nH]cn1)C(=O)N[C@@H](CC(C)C)C(=O)N[C@@H](CC(N)=O)C(=O)N[C@@H](CO)C(=O)N[C@@H](CCSC)C(=O)N[C@@H](CCC(=O)O)C(=O)N[C@@H](CCCNC(=N)N)C(=O)N[C@H](C(=O)N[C@@H](CCC(=O)O)C(=O)N[C@@H](Cc1c[nH]c2ccccc12)C(=O)N[C@H](CC(=O)N[C@@H](CCCNC(=N)N)C(=O)N[C@@H](CCCCN)C(=O)N[C@@H](CCCCN)C(=O)N[C@H](CC(=O)N[C@@H](CCC(N)=O)C(=O)N[C@@H](CC(=O)O)C(=O)N[C@H](C(=O)N[C@@H](CCC(N)=O)CC(=O)N[C@@H](CC(N)=O)C(=O)N[C@@H](Cc1ccccc1)C(N)=O)C(C)C)CC(C)C)CC(C)C)C(C)C [B3]
Max (WT human PTHR-1; GP-2.3 cells): 234 ± 16 luminescence counts per second × 10^−3
Max (WT rat PTHR-1): 69 ± 78 luminescence counts per second × 10−3

affinity for the R^0 state of hPTHR-1, in words (R^0 form of human PTHR-1; compared with PTH(1-34)): matches PTH(1-34)
cAMP (hPTHR-1) Max (WT human PTHR-1; Table 1): 1.04
agonist activity at hPTHR-1 (cAMP response), in words (WT human PTHR-1): full agonists of hPTHR-1
Compound: CC[C@H](C)[C@H](NC(=O)[C@H](CCC(=O)O)NC(=O)[C@H](CO)NC(=O)[C@@H](NC(=O)[C@@H](N)CO)C(C)C)C(=O)N[C@@H](CCC(N)=O)C(=O)N[C@@H](CC(C)C)C(=O)N[C@@H](CCSC)C(=O)N[C@@H](Cc1c[nH]cn1)C(=O)N[C@@H](CC(N)=O)C(=O)N[C@@H](CC(C)C)C(=O)NCC(=O)N[C@@H](CCCCN)C(=O)N[C@@H](Cc1c[nH]cn1)C(=O)N[C@@H](CC(C)C)C(=O)N[C@@H](CC(N)=O)C(=O)N[C@@H](CO)C(=O)N[C@@H](CCSC)C(=O)N[C@@H](CCC(=O)O)C(=O)N[C@@H](CCCNC(=N)N)C(=O)N[C@H](C(=O)N[C@@H](CCC(=O)O)C(=O)N[C@@H](Cc1c[nH]c2ccccc12)C(=O)N[C@@H](CC(C)C)C(=O)N[C@@H](CCCNC(=N)N)C(=O)N[C@@H](CCCCN)CC(=O)N[C@@H](CCCCN)C(=O)N[C@@H](CC(C)C)C(=O)N[C@@H](CCC(N)=O)C(=O)N[C@@H](CC(=O)O)CC(=O)N[C@H](C(=O)N[C@@H](Cc1c[nH]cn1)C(=O)N[C@@H](CC(N)=O)C(=O)N[C@H](CC(N)=O)Cc1ccccc1)C(C)C)C(C)C [D3]
Max (WT human PTHR-1; GP-2.3 cells): 226 ± 15 luminescence counts per second × 10^−3
Max (WT rat PTHR-1): 65 ± 62 luminescence counts per second × 10−3

Source: patent US10501518B2 (priority 2013, dated 2019)
